system: GM01896 cells (MPS II dermal fibroblasts); assay: Assay 1: MPS cellular assay, MPS II (heparan sulfate disaccharide biomarkers by LC-MS); type: cell-based, human; conditions: Assay 1 for MPS II, heparan sulfate disaccharide biomarkers (I2a4, I2a6, I2S0 and/or I2S6), read-out: IC50 Range
Method in brief: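 Heparan sulfate disaccharide biomarkers quantified by LC-MS after heparinase I/II/III digestion and isotopic aniline labelling, using GM01896 MPS II fibroblasts exposed to compound (at or below 30 μM, 4-21 days). Values given as IC50 by curve fitting; cell viability checked with alamar blue or ATP.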

Cc1nn(C)c2cc(-c3cc(Nc4ccc(-n5cccn5)cc4)nc(N4CCOCC4)n3)ccc12 [[6-(1,3-dimethyl(1H-indazol-6-yl))-2-morpholin-4-ylpyrimidin-4-yl](4-pyrazolylphenyl)amine] and Cc1ccn(-c2ccc(Nc3cc(-c4ccc5c(C)nn(C)c5c4)nc(N4CCOCC4)n3)cc2)n1 [[6-(1,3-dimethyl(1H-indazol-6-yl))-2-morpholin-4-ylpyrimidin-4-yl][4-(3-methylpyrazolyl)phenyl]amine] cannot be ordered by IC50: less than 500 nM for the first, less than 500 nM for the second.

same assay, conditions: Homo sapiens, Fibroblast, Assay 1 for MPS II, heparan sulfate disaccharide biomarkers (I2a4, I2a6, I2S0 and/or I2S6), read-out: IC50 Range

First: Cc1nn(C)c2cc(-c3cc(Nc4cc(Cl)c5ccn(C)c5c4)nc(N4CCOCC4)n3)ccc12 [[6-(1,3-dimethyl(1H-indazol-6-yl))-2-morpholin-4-ylpyrimidin-4-yl](4-chloro-1-methylindol-6-yl)amine]
Second: Cc1nn(C)c2cc(-c3cc(Nc4ccc(Cl)cc4)nc(N4CCOCC4)n3)ccc12 [[6-(1,3-dimethyl(1H-indazol-6-yl))-2-morpholin-4-ylpyrimidin-4-yl](4-chlorophenyl)amine]
The IC50 of the first is higher: 1000 to 5000 nM for the first, 500 to 1000 nM for the second. The second is the more potent here.

First: Cc1nn(C)c2cc(-c3cc(Nc4ccc(-c5ncc[nH]5)cc4)nc(N4CCOCC4)n3)ccc12 [[6-(1,3-dimethyl(1H-indazol-6-yl))-2-morpholin-4-ylpyrimidin-4-yl](4-imidazol-2-ylphenyl)amine]
Second: Cc1nn(C)c2cc(-c3cc(Nc4ccc(-c5c[nH]cn5)cc4)nc(N4CCOCC4)n3)ccc12 [[6-(1,3-dimethyl(1H-indazol-6-yl))-2-morpholin-4-ylpyrimidin-4-yl](4-imidazol-4-ylphenyl)amine]
The IC50 of the first is lower: less than 500 nM for the first, 1000 to 5000 nM for the second. The first is the more potent here.

Cc1nn(C)c2cc(-c3cc(Nc4ccc(-c5ccn[nH]5)cc4)nc(N4CCOCC4)n3)ccc12 [[6-(1,3-dimethyl(1H-indazol-6-yl))-2-morpholin-4-ylpyrimidin-4-yl](4-pyrazol-5-ylphenyl)amine] and Cc1nn(C)c2cc(-c3cc(Nc4ccc(-c5ccc[nH]5)cc4)nc(N4CCOCC4)n3)ccc12 [[6-(1,3-dimethyl(1H-indazol-6-yl))-2-morpholin-4-ylpyrimidin-4-yl](4-pyrrol-2-ylphenyl)amine] cannot be ordered by IC50: less than 500 nM for the first, less than 500 nM for the second.

First: Cc1nn(C)c2cc(-c3cc(Nc4ccc(-c5cc[nH]c5)cc4)nc(N4CCOCC4)n3)ccc12 [[6-(1,3-dimethyl(1H-indazol-6-yl))-2-morpholin-4-ylpyrimidin-4-yl](4-pyrrol-3-ylphenyl)amine]
Second: Cc1nn(C)c2cc(-c3cc(Nc4ccc(-c5ccn(C)c5)cc4)nc(N4CCOCC4)n3)ccc12 [[6-(1,3-dimethyl(1H-indazol-6-yl))-2-morpholin-4-ylpyrimidin-4-yl][4-(1-methylpyrrol-3-yl)phenyl]amine]
The IC50 of the first is lower: 500 to 1000 nM for the first, 1000 to 5000 nM for the second.

COc1ccc(Cn2cc(-c3ccc(Nc4cc(-c5ccc6c(C)nn(C)c6c5)nc(N5CCOCC5)n4)cc3)cn2)cc1 [[6-(1,3-dimethyl(1H-indazol-6-yl))-2-morpholin-4-ylpyrimidin-4-yl](4-{1-[(4-methoxyphenyl)methyl]pyrazol-4-yl}phenyl)amine] and Cc1nn(C)c2cc(-c3cc(Nc4ccc(-c5ccn(C)n5)cc4)nc(N4CCOCC4)n3)ccc12 [[6-(1,3-dimethyl(1H-indazol-6-yl))-2-morpholin-4-ylpyrimidin-4-yl][4-(1-methylpyrazol-3-yl)phenyl]amine] fall in the same range of IC50: 1000 to 5000 nM for the first, 1000 to 5000 nM for the second.

First: Cc1nn(C)c2cc(-c3cc(Nc4ccc(-c5nccn5C)cc4)nc(N4CCOCC4)n3)ccc12 [[6-(1,3-dimethyl(1H-indazol-6-yl))-2-morpholin-4-ylpyrimidin-4-yl][4-(1-methylimidazol-2-yl)phenyl]amine]
Second: Cc1nn(C)c2cc(-c3cc(Nc4ccc(-c5cn(C)cn5)cc4)nc(N4CCOCC4)n3)ccc12 [[6-(1,3-dimethyl(1H-indazol-6-yl))-2-morpholin-4-ylpyrimidin-4-yl][4-(1-methylimidazol-4-yl)phenyl]amine]
The IC50 of the first is lower: less than 500 nM for the first, 1000 to 5000 nM for the second.

Cc1nn(C)c2cc(-c3cc(Nc4ccc(-c5cccn5C)cc4)nc(N4CCOCC4)n3)ccc12 [[6-(1,3-dimethyl(1H-indazol-6-yl))-2-morpholin-4-ylpyrimidin-4-yl][4-(1-methylpyrrol-2-yl)phenyl]amine] and Cc1nn(C)c2cc(-c3cc(Nc4ccc(-c5[nH]ncc5F)cc4)nc(N4CCOCC4)n3)ccc12 [[6-(1,3-dimethyl(1H-indazol-6-yl))-2-morpholin-4-ylpyrimidin-4-yl][4-(4-fluoropyrazol-5-yl)phenyl]amine] fall in the same range of IC50: 500 to 1000 nM for the first, 500 to 1000 nM for the second.

Cc1cnn(-c2ccc(Nc3cc(-c4ccc5c(C)nn(C)c5c4)nc(N4CCOCC4)n3)cc2)n1 [[6-(1,3-dimethyl(1H-indazol-6-yl))-2-morpholin-4-ylpyrimidin-4-yl][4-(4-methyl(1,2,3-triazol-2-yl))phenyl]amine] and Cc1nnc(-c2ccc(Nc3cc(-c4ccc5c(C)nn(C)c5c4)nc(N4CCOCC4)n3)cc2)[nH]1 [[6-(1,3-dimethyl(1H-indazol-6-yl))-2-morpholin-4-ylpyrimidin-4-yl][4-(5-methyl(4H-1,2,4-triazol-3-yl))phenyl]amine] cannot be ordered by IC50: less than 500 nM for the first, less than 500 nM for the second.

Cc1nn(C)c2cc(-c3cc(Nc4ccc(-c5nnc(C6CC6)[nH]5)cc4)nc(N4CCOCC4)n3)ccc12 [[6-(1,3-dimethyl(1H-indazol-6-yl))-2-morpholin-4-ylpyrimidin-4-yl][4-(5-cyclopropyl(4H-1,2,4-triazol-3-yl))phenyl]amine] and Cc1nn(C)c2cc(-c3cc(Nc4ccc(-c5nnc(C(C)C)[nH]5)cc4)nc(N4CCOCC4)n3)ccc12 [[6-(1,3-dimethyl(1H-indazol-6-yl))-2-morpholin-4-ylpyrimidin-4-yl]{4-[5-(methylethyl)(4H-1,2,4-triazol-3-yl)]phenyl}amine] cannot be ordered by IC50: less than 500 nM for the first, less than 500 nM for the second.

First: Cc1nn(C)c2cc(-c3cc(Nc4ccc5[nH]ccc5c4)nc(N4CCOCC4)n3)ccc12 [[6-(1,3-dimethyl(1H-indazol-6-yl))-2-morpholin-4-ylpyrimidin-4-yl]indol-5-ylamine]
Second: Cc1nn(C)c2cc(-c3cc(Nc4ccc5cc[nH]c5c4)nc(N4CCOCC4)n3)ccc12 [[6-(1,3-dimethyl(1H-indazol-6-yl))-2-morpholin-4-ylpyrimidin-4-yl]indol-6-ylamine]
The IC50 of the first is higher: 1000 to 5000 nM for the first, 500 to 1000 nM for the second. The second is the more potent here.

First: Cc1nn(C)c2cc(-c3cc(Nc4ccc(-c5nnc(C(F)(F)F)[nH]5)cc4)nc(N4CCOCC4)n3)ccc12 [[6-(1,3-dimethyl(1H-indazol-6-yl))-2-morpholin-4-ylpyrimidin-4-yl]{4-[5-(trifluoromethyl)(4H-1,2,4-triazol-3-yl)]phenyl}amine]
Second: Cc1nn(C)c2cc(-c3cc(Nc4ccc(-c5ncc(C(F)(F)F)[nH]5)cc4)nc(N4CCOCC4)n3)ccc12 [[6-(1,3-dimethyl(1H-indazol-6-yl))-2-morpholin-4-ylpyrimidin-4-yl]{4-[5-(trifluoromethyl)imidazol-2-yl]phenyl}amine]
The IC50 of the first is higher: 1000 to 5000 nM for the first, 500 to 1000 nM for the second. The second is the more potent here.

Compared with Cc1nn(C)c2cc(-c3cc(Nc4ccc(-n5nccn5)cc4)nc(N4CCOCC4)n3)cnc12 [[6-(1,3-dimethylpyrazolo[4,5-b]pyridin-6-yl)-2-morpholin-4-ylpyrimidin-4-yl](4-(1,2,3-triazol-2-yl)phenyl)amine], Cc1nn(C)c2cc(-c3cc(Nc4ccc(Cl)cc4)nc(N4CCOCC4)n3)cnc12 [[6-(1,3-dimethylpyrazolo[4,5-b]pyridin-6-yl)-2-morpholin-4-ylpyrimidin-4-yl](4-chlorophenyl)amine] is higher in IC50: less than 500 nM for the first, 500 to 1000 nM for the second.

First: Cc1nn(C)c2nc(-c3cc(Nc4ccc(Cl)cc4)nc(N4CCOCC4)n3)ccc12 [[6-(1,3-dimethylpyrazolo[4,5-e]pyridin-6-yl)-2-morpholin-4-ylpyrimidin-4-yl](4-chlorophenyl)amine]
Second: Cc1nn(C)c2cc(-c3cc(Nc4ccc(Cl)cc4)nc(N4CCOCC4)n3)ncc12 [[6-(1,3-dimethylpyrazolo[5,4-d]pyridin-6-yl)-2-morpholin-4-ylpyrimidin-4-yl](4-chlorophenyl)amine]
The IC50 of the first is higher: 1000 to 5000 nM for the first, less than 500 nM for the second. The second is the more potent here.

Cc1ccc(Nc2cc(-c3ccc4c(cnn4C)c3)nc(N3CCOCC3)n2)cc1 [[6-(1-methyl(1H-indazol-5-yl))-2-morpholin-4-ylpyrimidin-4-yl](4-methylphenyl)amine] and Cn1ccc2cc(Nc3cc(-c4ccc5cnn(C)c5c4)nc(N4CCOCC4)n3)ccc21 [[6-(1-methyl(1H-indazol-6-yl))-2-morpholin-4-ylpyrimidin-4-yl](1-methylindol-5-yl)amine] fall in the same range of IC50: 1000 to 5000 nM for the first, 1000 to 5000 nM for the second.

Compared with Cc1c(C)n(C)c2cc(Nc3cc(-c4ccc5cnn(C)c5c4)nc(N4CCOCC4)n3)ccc12 [[6-(1-methyl(1H-indazol-6-yl))-2-morpholin-4-ylpyrimidin-4-yl](1,2,3-trimethylindol-6-yl)amine], Cn1cnc2ccc(Nc3cc(-c4ccc5cnn(C)c5c4)nc(N4CCOCC4)n3)cc21 [[6-(1-methyl(1H-indazol-6-yl))-2-morpholin-4-ylpyrimidin-4-yl](1-methylbenzimidazol-6-yl)amine] is lower in IC50: 1000 to 5000 nM for the first, 500 to 1000 nM for the second. The second is the more potent here.

Cn1cnc2cc(Nc3cc(-c4ccc5cnn(C)c5c4)nc(N4CCOCC4)n3)ccc21 [[6-(1-methyl(1H-indazol-6-yl))-2-morpholin-4-ylpyrimidin-4-yl](1-methylbenzimidazol-5-yl)amine] and Cn1ncc2ccc(-c3cc(Nc4ccc5c(c4)nnn5C)nc(N4CCOCC4)n3)cc21 [[6-(1-methyl(1H-indazol-6-yl))-2-morpholin-4-ylpyrimidin-4-yl](1-methylbenzotriazol-5-yl)amine] fall in the same range of IC50: 1000 to 5000 nM for the first, 1000 to 5000 nM for the second.

First: Cn1ncc2ccc(-c3cc(Nc4ccc5nnn(C)c5c4)nc(N4CCOCC4)n3)cc21 [[6-(1-methyl(1H-indazol-6-yl))-2-morpholin-4-ylpyrimidin-4-yl](1-methylbenzotriazol-6-yl)amine]
Second: Cn1ccc2ccc(Nc3cc(-c4ccc5cnn(C)c5c4)nc(N4CCOCC4)n3)cc21 [[6-(1-methyl(1H-indazol-6-yl))-2-morpholin-4-ylpyrimidin-4-yl](1-methylindol-6-yl)amine]
The IC50 of the first is higher: 1000 to 5000 nM for the first, less than 500 nM for the second. The second is the more potent here.

Source: patent publication US20190151312A1, “HEPARAN SULFATE BIOSYNTHESIS INHIBITORS FOR THE TREATMENT OF DISEASES” (BioMarin Pharmaceutical Inc., priority 2014, published 2019)
